Assays:
Assay type in all cases: cell-based
[1] = tested on: CCND1, CCND3, and CDK4 in Calu-1 cells; assay: Immunoblot of CCND1, CCND3 and CDK4 protein levels in Calu-1 cells (FIG. 1A, 4 hours); details: Calu-1, reduction of CCND1, CCND3, and CDK4 protein levels
Procedure: (§1) Specific exemplary heterobifunctional compounds were characterized in Calu-1, MCF7, T47D and other cells. Cells that express cyclin D1-3 and CDK4/6 proteins were treated with heterobifunctional compounds disclosed herein at indicated concentrations. MCF7 cells were deprived of serum for 2 hours followed by the treatment with heterobifunctional compounds. Cells were collected, lysed and subject to immunoblotting using an antibody specific to CCND1, CCND2, CCND3, CDK4, or FoxM1, cyclin A2, or phosphorylated Rb (S807/811) proteins. Tubulin or GAPDH was used as the loading control. DMSO treatment was used as the negative control.

[2] = tested on: CCND1, CCND3, and CDK4 in MCF7 cells; assay: Immunoblot of CCND1, CCND3 and CDK4 protein levels in MCF7 cells under serum starvation (FIG. 1B, 24 hours); details: MCF7, reduction of CCND1, CCND3, and CDK4 protein levels, serum starvation, 24 hours
Procedure: as §1

Calu-1 cells = assay: Anti-proliferation (viability) of NSCLC Calu-1 cells, 3 days (Table 7, FIG. 2B); details: Homo sapiens, 72 h; Calu-1 cells, 3 days, 10-point serial dilution; read-out: GI IC50 in Calu-1
Outline: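 Seed cells, add compound in ten serially diluted concentrations, then incubate (Calu-1: 3 days; T47D: 6 days) before measuring viability.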

MCF7 cells = assay: Anti-proliferation (viability) of MCF7 cells (Table 7, FIG. 2B); details: Homo sapiens, MCF7, MCF7 cells, 3-6 days, 10-point serial dilution; read-out: GI IC50 in MCF-7
T47D cells = assay: Flow cytometric analysis of Annexin V/7-AAD stained T47D cells (apoptosis), 6 days (FIG. 3A)
Procedure: T47D cells were treated with DMSO, palbociclib, heterobifunctional compound CPD-10 for 6 days at doses approximating IC50and IC90 concentrations as indicated (FIG. 3A). HCC1428 cells were treated with DMSO, palbociclib, heterobifunctional compound CPD-10, or its negative control compound CPD-143 for 6 days at doses approximating IC90 concentrations as indicated (FIG. 3B). Cells were harvested by trypsinization, staining was carried out using the Annexin V Apoptosis Detection Kit. The percentages of early apoptotic (Annexin V^+7-AAD^−, lower right quadrant), late apoptotic (Annexin V^+7-AAD^+, upper right quadrant) and necrotic cells (Annexin V^−7-AAD^+, upper left quadrant) are indicated on dot plots.

CCND1 = assay: Immunoblotting of CCND1 protein level in Calu-1 and MCF7 cells (FIG. 1A-1B)
Procedure: (§2) Calu-1 cells were treated with heterobifunctional compound CPD-10, or CDK4/6 inhibitor palbociclib at indicated concentrations for 4 hours (FIG. 1A). MCF7 cells were deprived of serum for 2 hours followed by treatment with CPD-10, or palbociclib at indicated concentrations for 24 hours (FIG. 1B).
(§3) Antibody and Reagent Anti-cyclin D1 (29785), anti-cyclin D2 (3741S), anti-cyclin D3 (2936S), anti-CDK4 (127905), anti-CDK6 (3136S), anti-phospho-Rb (8516S), anti-FoxM1 (54365), anti-cyclinA2(4656S), anti-vinculin antibody (187995) antibodies were purchased from Cell Signaling Technology. HRP-conjugated anti-α-tubulin antibody and anti-α-GAPDH antibody were purchased from GNI. Media, and other cell culture reagents were purchased from Thermo Fisher Scientific. CellTiter-Glo Luminescent Assay kit was purchased from Promega.
(§4) Calu-1, T47D, MCF7, HCC1428 and other cells were cultured at 37° C. with 5% CO2 in RPMI 1640 or DMEM medium supplemented with 10% fetal bovine serum. Cells were authenticated using the short tandem repeat (STR) assays. Mycoplasma test results were negative. For palbo-resistant cell model, T47D cells were cultured long-term to resistance in the presence of 1 μM Palbociclib. Cells were deemed resistant when growing in the presence of Palbo at the same rate as parental cells.
(§5) Cultured cells were washed with cold PBS once and lysed in cold RIPA buffer supplemented with protease inhibitors and phosphatase inhibitors (Beyotime Biotechnology). The solutions were then incubated at 4 ? for 30 min with gentle agitation to fully lysed cells. Cell lysates were centrifuged at 13,000 rpm for 10 min at 4 ? and pellets were discarded. Total protein concentrations in the lysates were determined following BCA assays (Beyotime Biotechnology). Cell lysates were mixed with Laemmli loading buffer and heated at 99° C. for 5 min. Proteins were resolved on SDS-PAGE and visualized using Western ECL Substrate kits on a ChemiDoc MP Imaging system (Bio-Rad). Protein bands were quantitated using the Image Lab software provided by Bio-Rad.

CCND3 = assay: Immunoblotting of CCND3 protein level in Calu-1 and MCF7 cells (FIG. 1A-1B)
Procedure: as §2, §3, §4, §5

cyclin A2 = assay: Immunoblotting of cyclin A2 protein level (FIG. 1A-1B); details: Calu-1 (4 hours), MCF7 (24 hours)
Procedure: as §2, §3
(§6) Calu-1, T47D, MCF7, HCC1428 and other cells were cultured at 37° C. with 5% CO2 in RPMI 1640 or DMEM medium supplemented with 10% fetal bovine serum. Cells were authenticated using the short tandem repeat (STR) assays. […]
(§7) Cultured cells were washed with cold PBS once and lysed in cold RIPA buffer supplemented with protease inhibitors and phosphatase inhibitors (Beyotime Biotechnology). […] Total protein concentrations in the lysates were determined following BCA assays (Beyotime Biotechnology). […] Protein bands were quantitated using the Image Lab software provided by Bio-Rad.

p-Rb = assay: Immunoblotting of Rb phosphorylation (FIG. 1A-1B); details: Calu-1 (4 hours), MCF7 (24 hours)
Procedure: as §2, §3, §6, §7

CDK4 = CDK4 (Homo sapiens, UniProt P11802+Q16531); assay: Immunoblotting of CDK4 protein level in Calu-1 and MCF7 cells (FIG. 1A-1B); set-up: Cells that express cyclin D1-3 and CDK4/6 proteins were treated with heterobifunctional compounds; endogenous in cells; host or cells: Calu-1
Procedure: as §2, §3, §4, §5

[3] = MCF7 cells, serum deprived 2 hours, treated 24 hours

Chain of CDK4 (P11802 2-303 limits assumed): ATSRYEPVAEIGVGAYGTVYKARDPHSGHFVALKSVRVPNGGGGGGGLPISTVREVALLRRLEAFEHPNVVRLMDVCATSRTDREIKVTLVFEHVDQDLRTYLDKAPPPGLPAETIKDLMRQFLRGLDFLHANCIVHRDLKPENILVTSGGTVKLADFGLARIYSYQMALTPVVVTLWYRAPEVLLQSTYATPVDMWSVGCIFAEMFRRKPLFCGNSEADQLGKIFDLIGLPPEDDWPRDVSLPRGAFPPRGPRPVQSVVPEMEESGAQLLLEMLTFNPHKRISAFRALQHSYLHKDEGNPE
Chain of CDK4 (P24385 whole entry partner): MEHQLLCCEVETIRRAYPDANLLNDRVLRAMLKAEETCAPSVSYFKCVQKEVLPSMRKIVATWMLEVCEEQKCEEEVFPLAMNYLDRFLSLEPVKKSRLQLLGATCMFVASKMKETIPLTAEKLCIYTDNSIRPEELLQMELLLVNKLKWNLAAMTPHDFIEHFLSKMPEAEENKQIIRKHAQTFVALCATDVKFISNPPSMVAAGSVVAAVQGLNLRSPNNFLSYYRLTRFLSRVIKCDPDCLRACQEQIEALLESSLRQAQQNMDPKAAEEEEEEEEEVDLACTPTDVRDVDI
Chain of CDK4 (Q16531 2-1140 limits assumed): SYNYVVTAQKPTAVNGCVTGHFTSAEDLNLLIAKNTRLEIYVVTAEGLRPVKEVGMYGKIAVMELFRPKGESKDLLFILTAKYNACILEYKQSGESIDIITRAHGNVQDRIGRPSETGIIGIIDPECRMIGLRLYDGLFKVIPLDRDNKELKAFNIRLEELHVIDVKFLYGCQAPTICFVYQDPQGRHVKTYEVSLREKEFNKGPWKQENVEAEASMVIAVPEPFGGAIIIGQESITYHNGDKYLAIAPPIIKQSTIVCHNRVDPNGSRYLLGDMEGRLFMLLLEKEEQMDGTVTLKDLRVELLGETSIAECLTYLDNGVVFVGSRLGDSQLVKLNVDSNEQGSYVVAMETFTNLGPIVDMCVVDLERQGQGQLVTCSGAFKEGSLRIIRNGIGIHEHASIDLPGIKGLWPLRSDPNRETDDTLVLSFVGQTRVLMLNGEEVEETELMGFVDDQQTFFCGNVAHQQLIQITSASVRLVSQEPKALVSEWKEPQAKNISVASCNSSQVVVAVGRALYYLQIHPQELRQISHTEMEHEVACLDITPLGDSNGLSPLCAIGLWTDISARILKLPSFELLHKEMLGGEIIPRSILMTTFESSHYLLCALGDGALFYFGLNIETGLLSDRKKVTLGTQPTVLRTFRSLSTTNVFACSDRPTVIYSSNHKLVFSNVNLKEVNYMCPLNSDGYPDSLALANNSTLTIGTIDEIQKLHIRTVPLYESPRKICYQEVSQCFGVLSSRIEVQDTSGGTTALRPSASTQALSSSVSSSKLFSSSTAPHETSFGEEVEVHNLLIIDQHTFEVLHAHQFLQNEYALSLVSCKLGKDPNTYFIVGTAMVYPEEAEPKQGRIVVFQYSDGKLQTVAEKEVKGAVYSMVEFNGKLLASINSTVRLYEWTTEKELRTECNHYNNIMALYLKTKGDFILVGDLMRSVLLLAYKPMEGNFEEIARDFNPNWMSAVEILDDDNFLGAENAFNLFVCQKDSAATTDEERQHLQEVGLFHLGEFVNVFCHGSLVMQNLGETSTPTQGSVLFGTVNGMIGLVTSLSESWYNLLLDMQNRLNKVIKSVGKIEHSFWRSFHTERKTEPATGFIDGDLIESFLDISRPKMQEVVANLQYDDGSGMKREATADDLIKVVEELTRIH

- DC50 [1]: < 5 nM
- DC50 [2]: < 20 nM
- IC50 (Calu-1 cells): ≤ 10 nM
- IC50 (MCF7 cells): 50 to 100 nM
Structure (SMILES): CNc1ccc(C(=O)Nc2ccc(N(C)C)nn2)c(NCCCCCCCNC(=O)CN2CCN(c3ccc(Nc4ncc5c(C)c(C(C)=O)c(=O)n(C6CCCC6)c5n4)nc3)CC2)n1 [CPD-10, 2-((7-(2-(4-(6-((6-acetyl-8-cyclopentyl-5-methyl-7-oxo-7,8-dihydropyrido[2,3-d]pyrimidin-2-yl)amino)pyridin-3-yl)piperazin-1-yl)acetamido)heptyl)amino)-N-(6-(dimethylamino)pyridazin-3-yl)-6-(methylamino)nicotinamide]
- Annexin V+ population (T47D cells; 15 nM): 20.9%
- Annexin V+ population (T47D cells; 200 nM): 62.2%
- CCND1 protein level (CCND1; Calu-1 cells, 4 hours): reduced CCND1, CCND3, and CDK4 protein levels in a concentration-dependent manner in both cell lines
- CCND1 protein level (CCND1; [3]): reduced CCND1, CCND3, and CDK4 protein levels in a concentration-dependent manner in both cell lines
- CCND3 protein level (CCND3; Calu-1 cells, 4 hours): reduced CCND1, CCND3, and CDK4 protein levels in a concentration-dependent manner in both cell lines
- CCND3 protein level (CCND3; [3]): reduced CCND1, CCND3, and CDK4 protein levels in a concentration-dependent manner in both cell lines
- cyclin A2 protein level (cyclin A2): inhibited downstream FoxM1 and cyclin A2 protein levels, and Rb phosphorylation in a concentration-dependent manner
- Rb phosphorylation (p-Rb): inhibited downstream FoxM1 and cyclin A2 protein levels, and Rb phosphorylation in a concentration-dependent manner
- CDK4 protein level (CDK4; Calu-1 cells, 4 hours): reduced CCND1, CCND3, and CDK4 protein levels in a concentration-dependent manner in both cell lines
- CDK4 protein level (CDK4; [3]): reduced CCND1, CCND3, and CDK4 protein levels in a concentration-dependent manner in both cell lines

Reference: patent US20260297081A1, “COMPOUNDS AND METHODS OF TREATING CANCERS” (Cullgen Inc., priority 2023, published 2026)
